Reference: patent publication US20260365656A1, “PYRAZOLE DERIVATIVE, AND PHARMACEUTICALLY ACCEPTABLE SALT, STEREOISOMER, PHARMACEUTICAL COMPOSITION AND USE THEREOF” (STARG (WUHAN) PHARMACEUTICAL TECHNOLOGY CO., LTD, priority 2023, published 2026)
Counter-ions that a name gives are not always drawn. Each block holds one compound with its values, some of them ahead of it.

How the values were obtained:
[1] = Pharmacokinetic Study of Test Compounds Administered Orally and Intravenously in Mice; type: in vivo, mouse (ICR, male); conditions: ICR mice
Text: Experimental Example 5: Pharmacokinetic Study of Test Compounds Administered Orally and Intravenously in Mice
This study used ICR male mice as test animals. The plasma concentrations of the test compounds and the reference compound in mice were quantitatively determined at different time points using the LC-MS/MS method following intravenous injection or oral administration to evaluate the pharmacokinetic characteristics of the test compounds in mice.
ICR mice (male, 20-30 g, 6-8 weeks old, Beijing Charles River).
A clear solution of the test compound was administered to ICR mice (fasted overnight or fed) via tail vein injection or oral gavage. For intravenous injection, blood samples (50 μL) were collected via cheek puncture at 0 h (pre-dose) and at 0.083, 0.25, 0.5, 1, 2, 4, 6, 8, and 24 h post-dose into anticoagulant tubes containing sodium heparin. The mixtures were thoroughly vortexed at 4 °C and centrifuged at 6000 rpm for 3 minutes. For oral gavage, blood samples were collected via cheek puncture at 0 h (pre-dose) and at 0.083, 0.25, 1, 2, 4, 6, 8, and 24 h post-dose into anticoagulant tubes containing sodium heparin. The mixtures were vortexed thoroughly, and centrifuged at 6000 rpm for 3 minutes. Plasma drug concentrations were determined using the LC-MS/MS method. Pharmacokinetic parameters were calculated using Phoenix WinNonlin 8.2.0 pharmacokinetic software with a non-compartmental model and linear-logarithmic trapezoidal rule.

CDK1/cyclin B1 = molecular target: T1, CDK1/cyclin B1 (Homo sapiens, UniProt P06493); assay: In Vitro CDK1/Cyclin B1 Enzyme Activity Assay (TR-FRET); type: biochemical; conditions: in words
T1 construct: purchased Carna Biosciences
Protocol: Experimental Example 2: In Vitro CDK1/Cyclin B1 Enzyme Activity Assay
CDK1/cyclin B1 was purchased from Carna Biosciences. Ulight-4E-BP1 peptide, Eu-anti-phospho-tyrosine antibody, and 1× detection buffer were purchased from PerkinElmer. High-purity ATP was purchased from Promega. EDTA was purchased from Sigma. Nivo multimode plate reader (PerkinElmer) was used.
Preparation of Kinase Buffer Solution: The kinase buffer solution consisted 50 mM HEPES, 1 mM EDTA, 10 mM MgCl2, and 0.01% Brij-35, with pH of 7.4. 2.38 g HEPES, 58 mg EDTA, 406 mg MgCl2, and 20 mg Brij-35 were added to 200 mL buffer, and the pH was adjusted to 7.4.
The stop solution was prepared by mixing 100 μL of 1 M EDTA stock solution with 0.625 μL of 1× detection buffer solution and 1725 μL of distilled water.
The enzyme, Ulight-4E-BP1 peptide, ATP, and the inhibitor were diluted using the kinase buffer solution.
The Eu-anti-phospho-tyrosine antibody was diluted to a concentration of 8 nM/L using the detection buffer solution.
The test compound was serially diluted 5-fold using a multichannel pipette to the 8th concentration, i.e., from 4 μM to 0.0512 nM. The final concentration of DMSO was 4%, and the experiment was set up with duplicate wells. 2.5 μL of each gradient concentration of the inhibitor, 5 μL of CDK1/cyclin B1 enzyme (0.5 ng), and 2.5 μL of a mixture of substrate and ATP (4 mM ATP, 200 nM Ulight-4E-BP1 peptide) were added to a microplate, resulting in a final concentration gradient of the compound from 1 μM to 0.0128 nM, with final ATP and substrate concentrations of 1 mM and 50 nM, respectively. The reaction system was incubated at 25 °C for 60 minutes. After the reaction, 5 μL of the stop solution was added to each well, and further reacted at 25 °C for 5 minutes to terminate the reaction. Then 5 μL of Eu-anti-phospho-tyrosine antibody dilution was added to each well, and the mixture was incubated at 25 °C for 60 minutes. Data were collected using the PerkinElmer Nivo multimode plate reader in TR-FRET mode (excitation wavelength: 320 nm; emission wavelengths: 615 nm and 665 nm).
The raw data were converted to inhibition rates using the equation (Sample−Min)/(Max−Min)×100%. The IC50 value was obtained by fitting the data to a four-parameter curve (using log(inhibitor) vs. response—Variable slope model in GraphPad Prism). Table 1 provides the enzyme inhibitory activity of the compounds of the present application against CDK1/cyclin B1.

T1 sequence (P06493 whole entry): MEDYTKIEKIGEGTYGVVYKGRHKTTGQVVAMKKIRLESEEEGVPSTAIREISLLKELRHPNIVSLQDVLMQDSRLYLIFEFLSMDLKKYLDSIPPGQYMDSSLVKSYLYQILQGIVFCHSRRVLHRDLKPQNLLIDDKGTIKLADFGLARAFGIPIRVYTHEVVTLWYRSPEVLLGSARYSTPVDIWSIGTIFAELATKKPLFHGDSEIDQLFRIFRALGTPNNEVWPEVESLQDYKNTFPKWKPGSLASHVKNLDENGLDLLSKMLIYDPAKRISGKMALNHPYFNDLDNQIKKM
T1 sequence (P14635 whole entry partner): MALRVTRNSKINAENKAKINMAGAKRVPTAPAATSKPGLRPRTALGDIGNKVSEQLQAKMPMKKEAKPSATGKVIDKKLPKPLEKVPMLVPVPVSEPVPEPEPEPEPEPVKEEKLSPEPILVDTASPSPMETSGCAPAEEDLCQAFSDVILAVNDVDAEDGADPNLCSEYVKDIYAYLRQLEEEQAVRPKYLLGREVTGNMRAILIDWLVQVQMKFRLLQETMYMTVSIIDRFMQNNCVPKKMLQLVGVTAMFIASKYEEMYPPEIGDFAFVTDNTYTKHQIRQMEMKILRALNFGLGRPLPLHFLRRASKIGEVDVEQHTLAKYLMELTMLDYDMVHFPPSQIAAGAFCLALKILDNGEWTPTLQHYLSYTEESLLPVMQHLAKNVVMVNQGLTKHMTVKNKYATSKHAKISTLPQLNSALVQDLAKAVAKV

Apparent volume of distribution Vdss ([1]; intravenous, 5 mg/Kg): 11.8 L/kg | Area under plasma concentration-time curve AUC0-last ([1]; intravenous, 5 mg/Kg): 1645 ng·h/mL | Clearance CL ([1]; intravenous, 5 mg/Kg): 50.3 mL/min/kg | Half-life T1/2 ([1]; intravenous, 5 mg/Kg): 2.68 h | Bioavailability F ([1]; oral 30 mg/Kg vs intravenous 5 mg/Kg): 76.2% | Area under plasma concentration-time curve AUC0-last ([1]; oral, 30 mg/Kg): 7524 ng·h/mL | Peak concentration Cmax ([1]; oral, 30 mg/Kg): 6317 ng/mL | Time to peak Tmax ([1]; oral, 30 mg/Kg): 0.25 h
Structure (SMILES): COCc1cc(C(=O)Nc2cc([C@H]3CC[C@@H](OC(=O)NC(C)C)C3)[nH]n2)n(C)n1 [PF-07104091]

Structure (SMILES): CON(C)Cc1nn2ccnc(Nc3cc([C@H]4CC[C@@H](OC(=O)NC(C)C)C4)[nH]n3)c2c1C [Formate salt of compound 2]
selectivity for CDK2 over CDK1 compared to PF-07104091 (CDK1/cyclin B1): superior selectivity compared to PF-07104091

Structure (SMILES): CONCc1nn2ccnc(Nc3cc([C@H]4CC[C@@H](OC(=O)NC(C)C)C4)[nH]n3)c2c1F [Compound 5]
selectivity for CDK2 over CDK1 compared to PF-07104091 (CDK1/cyclin B1): superior selectivity compared to PF-07104091

Structure (SMILES): CNOCc1nn2ccnc(Nc3cc([C@H]4CC[C@@H](OC(=O)NC(C)C)C4)[nH]n3)c2c1F [Hydrochloride salt of Compound 7]
selectivity for CDK2 over CDK1 compared to PF-07104091 (CDK1/cyclin B1): superior selectivity compared to PF-07104091

Structure (SMILES): CON(C)Cc1nn2ccnc(Nc3cc([C@H]4CC[C@@H](OC(=O)NC(C)C)C4)[nH]n3)c2c1F [Compound 6]
selectivity for CDK2 over CDK1 compared to PF-07104091 (CDK1/cyclin B1): superior selectivity compared to PF-07104091

Structure (SMILES): CONCc1nn2ccnc(Nc3cc([C@H]4CC[C@@H](OC(=O)NC(C)C)C4)[nH]n3)c2c1C [Formate salt of compound 1]
selectivity for CDK2 over CDK1 compared to PF-07104091 (CDK1/cyclin B1): superior selectivity compared to PF-07104091

Structure (SMILES): CNOCc1nn2ccnc(Nc3cc([C@H]4CC[C@@H](OC(=O)NC(C)C)C4)[nH]n3)c2c1C [Hydrochloride salt of compound 3]
selectivity for CDK2 over CDK1 compared to PF-07104091 (CDK1/cyclin B1): superior selectivity compared to PF-07104091
